From patent US10654866B2, “Selective estrogen receptor degraders” (Eli Lilly and Company, priority 2018, dated 2020)

Assays:
[1] = biological target: T1, ERα (Homo sapiens (Human), UniProt P03372); assay: ERα degradation assay in MCF7 cells; assay type: cell-based; conditions: 24 hours, % ER positive cells, read-out: Relative IC50
Experimental: The purpose of the following ERα degradation assay is to measure the degradation of ERα by a test compound in an ERα positive breast cancer cell line such as MCF7.
Culture MCF7 (purchased from ATCC HTB-22) cells in DMEM media supplemented with 10% FBS, 0.01 mg/mL human insulin 1 and 1% penicillin/streptomycin antibiotics and plate in 384-well flat-bottom plates at a density of 4,000 cells per well in phenol red free DMEM media (20 μL) containing 10% charcoal stripped FBS. Incubate the cells overnight in a cell culture incubator (5% CO2, 95% relative humidity and 37° C.) and allow the cells to attach to the plate. The following day dose the cells with the test compound. Use an Echo 555 acoustic dispenser to prepare test compound serial dilutions (1:3) in a range from 6 μM to 0.0003 μM. Dose the cells with the addition of 5 μL from the serial dilution plate to the cell plate producing a final DMSO concentration of 0.2% with a final test compound concentration dose range between 2 and 0.0001 μM. For the maximum point, use media containing 0.2% of DMSO and for the minimum point, use fulvestrant diluted at 2 μM final concentrations in the growth media containing 0.2% DMSO. After dosing with the test compound, incubate the cell plates at 37° C. and 5% CO2 for 24 hours. Fix the cells by adding 14% para-formaldehyde (10 μL) for 30 minutes at room temperature. Wash the cells once with PBS (20 μL) and incubate with PBS (20 μL) containing 0.5% (v/v) TWEEN® 20 for 1 hour. Wash the cells with PBS containing 0.05% TWEEN® 20 (2×) and block with 3% BSA in PBS containing 0.05% TWEEN® 20 and 0.1% TRITON™ X-100 (20 μL/well) for 1 hour at room temperature. Add 1:500 Primary antibody (20 μL) (ERα (Clone SP1) monoclonal rabbit antibody # RM-9101-S, Thermo Scientific) dilution in 1% BSA in PBS containing 0.05% TWEEN® 20 per well, seal the plates and incubate overnight at 4° C. The following day wash the cells with PBS containing 0.05% TWEEN® 20 (2×) and incubate with secondary antibody (20 μL/well) (1:1000 dilution, Goat anti-rabbit IgM ALEXA FLUOR™ 488) in PBS 1% BSA for 105 minutes at room temperature. […] Seal the plates and incubate 1 hour at room temperature on the bench (preserved from light). Scan the plates with ACUMEN EXPLORER™ [Laser-scanning fluorescence microplate cytometer manufactured by TTP LABTECH LTD] to measure ERα. Image analysis is based on cellular fluorescent signals for identifying positive cells. Identify ER positive cells by mean intensity. Use total intensity at 575-640 nm from propidium iodide/DNA to identify individual cells. Assay output is % ER positive cells. Determine the IC50 by curve fitting to a four parameter logistic for each output using GENE DATA™.

[2] = biological target: ERα (Y537S mutant) (Homo sapiens (Human), UniProt P03372, Y537S); assay: ERα (Y537S mutant) competition binding assay; conditions: 3H-estradiol competition; Ki from IC50 by Cheng-Prusoff
Experimental: (§1) Add the test compound at 10 different concentrations ranging from 10,000 nM to 0.5 nM, and determine nonspecific binding in the presence of 1 μM of 1713 estradiol. Incubate the binding reaction (140 μL) for 4 hours at room temperature, and then add cold dextran-charcoal buffer (70 μL) (containing per 50 mL of assay buffer, 0.75 g of charcoal and 0.25 g of dextran) to each reaction. Mix the plates for 8 minutes on an orbital shaker at 4° C. and then centrifuge at 3000 rpm at 4° C. for 10 minutes. Transfer an aliquot (120 μL) of the mixture to another 96-well, white flat bottom plate (Costar) and add Perkin Elmer Optiphase Supermix scintillation fluid (175 μL) to each well. Seal the plates and shake vigorously on an orbital shaker. After an incubation of 2.5 hours, read the plates in a Wallac Microbeta counter. […] Convert the IC50 values for the compound to Ki using Cheng-Prusoff equation.

[3] = biological target: Y537N mutant ERα receptor (Homo sapiens, UniProt P03372, Y537N); assay: PRα inhibition (ERα functional antagonism) cell assay in MCF7-ESR1 Y537N 682 CRISPR cells; assay type: cell-based; conditions: MCF7 Y537N 682 CRISPR cells, 72 hours, % PR positive cells; read-out: Relative IC50
Experimental: An antagonist in this assay is expected to block the function of the ERα receptor.
Incubate the cells overnight in a cell culture incubator (5% CO2, 95% relative humidity and 37° C.) and allow the cells to attach to the plate. The following day dose the cells with the test compound. Use an Echo 555 acoustic dispenser to prepare compound serial dilutions (1:3) in a range from 6 μM to 0.0003 μM. Dose the cells with the addition of 5 μL from the serial dilution plate to the cell plate producing a final DMSO concentration of 0.2% with a final test compound concentration dose range between 2 and 0.0001 μM. For the maximum point use media containing 0.2% of DMSO and for the minimum point, use fulvestrant diluted at 2 μM final concentrations in the growth media containing 0.2% DMSO. After dosing with test compound, incubate the cell plates at 37° C. and 5% CO2 for 72 hours. Fix the cells by adding 14% para-formaldehyde (10 μL) for 30 minutes at room temperature. Wash the cells with PBS (1×20 μL) and incubate with PBS (20 μL) of containing 0.5% (v/v) TWEEN® 20 for 1 hour. Wash the cells with PBS (2×20 μL) 0.05% TWEEN® 20, and block with 3% BSA/PBS 0.05% TWEEN® 20, 0.1% TRITON™ X-100 (20 μL/well) for 1 hour at room temperature. Add 1:500 primary antibody (20 μL) (PR monoclonal mouse anti-human antibody, clone PgR 636 Dako, M3569) dilution in 1% BSA/PBS 0.05 TWEEN® 20 per well, seal the plates and incubate overnight at 4° C.
The following day, wash the cells with PBS […] (2×20 μL) and incubate with secondary antibody (20 μL/well) (1:1000 dilution, Goat anti-rabbit IgM ALEXA FLUOR™ 488) in PBS 1% BSA for 105 minutes at room temperature. […] Seal the plates and incubate 1 hour at room temperature on the bench (preserved from light). Scan the plates with ACUMEN EXPLORER™ [Laser-scanning fluorescence microplate cytometer manufactured by TTP LABTECH LTD] to measure PRα. Image analysis is based on cellular fluorescent signals for identifying positive cells. Identify PR positive cells by mean intensity. Use total intensity at 575-640 nm from propidium iodide/DNA to identify individual cells. Assay output is % PR positive cells. Determine the IC50 by curve fitting to a four parameter logistic for each output using GENE DATA™.

[4] = biological target: ERα (wild type) (Homo sapiens (Human), UniProt P03372); assay: ERα (wild type) competition binding assay; conditions: 3H-estradiol competition; Ki from IC50 by Cheng-Prusoff
Experimental: as §1

[5] = biological target: T1, ERα; assay: PRα inhibition (ERα functional antagonism) cell assay in MCF7 cells; assay type: cell-based; conditions: MCF7 cells pretreated with 0.47 nM estradiol, % PRα positive cells; read-out: Relative IC50
Source text: The purpose of the following PRα inhibition (ERα functional antagonism) cell assay is to determine the antagonistic activity of a test compound against the ERα receptor. An antagonist in this assay is expected to block the function of the ERα receptor.
Carry out the assay conditions as detailed in the ERα degradation Cell base Acumen assay above, using the MCF7 cell line except that, prior to test compound dispensing, remove the media from the cell plate and pretreat all wells except for the negative control wells (column 24 of the plate) with assay media containing 0.47 nM estradiol for 30 minutes. In this assay, carry out immunostaining for the detection of PRα and scan the plates with ACUMEN EXPLORER™ [Laser-scanning fluorescence microplate cytometer manufactured by TTP LABTECH LTD] to measure PRα. Image analysis is based on cellular fluorescent signals for identifying positive cells. Identify PRα positive cells by mean intensity. Use total intensity at 575-640 from propidium iodide/DNA to identify individual cells. Assay output is % PRα positive cells. Determine the IC50 by curve fitting to a four parameter logistic for each output using GENE DATA™.

[6] = test system: MCF7 ER-positive breast cancer model; assay: In vivo combination studies in MCF7 ER-positive breast cancer xenograft model; design: species or system mice; conditions: for Difference (Treatment 1 − Treatment 2): Treatment 1 = Vehicle, log10 tumor volume
Source text: Otherwise, the statistical conclusion is additive.

T1 sequence (P03372 whole entry): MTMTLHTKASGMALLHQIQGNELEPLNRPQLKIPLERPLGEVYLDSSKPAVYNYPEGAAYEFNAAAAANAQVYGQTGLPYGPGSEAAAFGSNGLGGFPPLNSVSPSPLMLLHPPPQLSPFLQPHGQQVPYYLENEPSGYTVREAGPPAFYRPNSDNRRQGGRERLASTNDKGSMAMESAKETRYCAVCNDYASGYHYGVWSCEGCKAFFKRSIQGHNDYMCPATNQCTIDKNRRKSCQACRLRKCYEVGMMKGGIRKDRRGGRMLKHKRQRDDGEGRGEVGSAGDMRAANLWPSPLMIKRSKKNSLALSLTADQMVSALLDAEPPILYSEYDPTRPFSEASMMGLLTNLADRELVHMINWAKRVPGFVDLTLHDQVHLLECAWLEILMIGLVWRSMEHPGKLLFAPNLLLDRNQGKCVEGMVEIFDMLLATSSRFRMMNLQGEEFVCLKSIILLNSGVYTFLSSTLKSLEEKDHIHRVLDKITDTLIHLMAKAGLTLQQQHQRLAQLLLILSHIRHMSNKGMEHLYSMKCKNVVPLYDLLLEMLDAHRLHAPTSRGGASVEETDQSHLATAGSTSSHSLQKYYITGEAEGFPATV
Sequence of ERα (wild type) (P03372 whole entry): as above
Sequence of ERα (Y537S mutant) (P03372 whole entry Y537S): as the sequence (P03372 whole entry) above, with Y537S counted along it

Row | Structure (SMILES) | DC50 [1] | Ki [2] | IC50 [3] | Ki [4] | other results
1 | Oc1ccc2c3c(cnc2c1)-c1ccc(Cl)cc1OC3c1ccc(OCCN2CC(CF)C2)cc1 (racemic) [Example 3, 8-chloro-5-(4-{2-[3-(fluoromethyl)azetidin-1-yl]ethoxy}phenyl)-5H-[1]benzopyrano[4,3-c]quinolin-2-ol] | 0.0335 ± 0.00783 µM | 6.69 nM | 0.0772 ± 0.0115 µM | 2.36 nM | 
2 | Oc1ccc2c3c(cnc2c1)-c1ccc(Cl)cc1OC3c1ccc(OCCN2CC(CF)C2)cc1 (single isomer, unassigned) [Example 3A, 8-Chloro-5-(4-{2-[3-(fluoromethyl)azetidin-1-yl]ethoxy}phenyl)-5H-[1]benzopyrano[4,3-c]quinolin-2-ol] | 0.391 µM | 27.2 nM | 0.612 µM | 8.11 nM | IC50 [5]: 0.927 µM
3 | Oc1ccc2c3c(cnc2c1)-c1ccc(Cl)cc1OC3c1ccc(OCCN2CC(CF)C2)cc1 (single isomer, unassigned) [Example 3B, 8-Chloro-5-(4-{2-[3-(fluoromethyl)azetidin-1-yl]ethoxy}phenyl)-5H-[1]benzopyrano[4,3-c]quinolin-2-ol] | 0.00866 µM | 2.79 nM | 0.016 µM | 0.59 nM | IC50 [5]: 0.0344 µM
4 | CCN1CCN(Cc2ccc(Nc3ncc(F)c(-c4cc(F)c5nc(C)n(C(C)C)c5c4)n3)nc2)CC1 [Abemaciclib, abemaciclib, reference compound] |  |  |  |  | Delta T/C % or % Regression ([6]; Example 1B 10 mpk, Abemaciclib 50 mpk, QD × 42, PO (Table 16)): −52%; Delta T/C % or % Regression ([6]; Example 10 15 mpk, Abemaciclib 50 mpk, QD × 42, PO (Table 20)): −70%; Difference (Treatment 1 − Treatment 2) ([6]; Example 1B 10 mpk, Abemaciclib 50 mpk, QD × 42, PO): 0.479; Difference (Treatment 1 − Treatment 2) ([6]; Example 10 15 mpk, Abemaciclib 50 mpk, QD × 42, PO): 0.445
5 | CO[C@@H](C)Cn1c(=O)n(C)c2cnc3ccc(-c4cncc(C(C)(C)O)c4)cc3c21 [Compound A, 8-[5-(1-hydroxy-1-methylethyl)pyridin-3-yl]-1-[(2 S)-2-methoxypropyl]-3-methyl-1,3-dihydro-2H-imidazo[4,5-c]quinolin-2-one, reference compound] |  |  |  |  | Delta T/C % or % Regression ([6]; Example 1B 10 mpk QD × 42, Compound A 7.5 mpk BID × 42, PO (Table 18)): −36%; Difference (Treatment 1 − Treatment 2) ([6]; Example 1B 10 mpk QD × 42, Compound A 7.5 mpk BID × 42, PO): 0.504
6 | CO[C@H]1C[C@@H]2CC[C@@H](C)[C@@](O)(O2)C(=O)C(=O)N2CCCC[C@H]2C(=O)O[C@H]([C@H](C)C[C@@H]2CC[C@@H](OCCO)[C@H](OC)C2)CC(=O)[C@H](C)/C=C(\C)[C@@H](O)[C@@H](OC)C(=O)[C@H](C)C[C@H](C)/C=C/C=C/C=C/1C [Everolimus, everolimus, reference compound] |  |  |  |  | Delta T/C % or % Regression ([6]; Example 10 15 mpk, Everolimus 5 mpk, QD × 42, PO (Table 24)): −50%; Difference (Treatment 1 − Treatment 2) ([6]; Example 10 15 mpk, Everolimus 5 mpk, QD × 42, PO): 0.433
7 | Cc1nc(NC(=O)N2CCC[C@H]2C(N)=O)sc1-c1ccnc(C(C)(C)C(F)(F)F)c1 [alpelisib, reference compound] |  |  |  |  | Delta T/C % or % Regression ([6]; Example 10 15 mpk, alpelisib 15 mpk (d1-d7), 10 mpk (d8-42), QD × 42, PO (Table 22)): −21%; Difference (Treatment 1 − Treatment 2) ([6]; Example 10 15 mpk, alpelisib 15 mpk (d1-d7), 10 mpk (d8-42), QD × 42, PO): 0.445
